Each block holds one compound with its values, some of them ahead of it. Active and inactive are the calls of the source.
Legend:
Beta Lactamase = Beta Lactamase (Pseudomonas aeruginosa, UniProt Q932Y6); test: BLA reporter interference, concentration series – BLA reporter cells, FRET fluorescence, artefact control for NOD2-RIPK2 interaction inhibitor project, dose response (AID 651552); assay type: functional, cell-based
[1] = Trypanosoma cruzi growth suppression in host cells – NIH3T3 host cells, beta-gal luminescence, confirmation (AID 2044); assay type: functional, cell-based;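 also: intracellular parasites grown in NIH/3T3 mouse fibroblasts as host cells; luminescent beta-galactosidase reporter signal from transgenic T. cruzi replicating inside host cells; inhibitors lower the luminescence signal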
[2] = Fluorescence-based cell-based high throughput dose response assay for inhibitors of the interaction of nucleotide-binding oligomerization domain containing 2 (NOD2) and the receptor-interacting serine-threonine kinase 2 (RIPK2).; assay type: functional; details: Homo sapiens
Paired box protein Pax-8 = Paired box protein Pax-8 (Homo sapiens, UniProt Q06710); test: PAX8 transcriptional activity inhibition in RMG-I – RMG-I cells, luciferase, cherry-pick, dose response (AID 687027); assay type: functional, cell-based;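 also: luciferase reporter driven by Pax8 target thyroperoxidase promoter measured by SteadyGlo luminescence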
[3] = NIH3T3 cell viability loss – ATP luminescence, mouse fibroblasts, counter-screen, dose response (AID 2010); assay type: functional, cell-based;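 also: cells exposed to compound for about 90 hours before reading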
Prothrombin = Prothrombin (Bos taurus, UniProt P00735); test: thrombin protease inhibitors – biochemical, fluorescence polarization, uHTS hits, dose response (AID 602369); assay type: functional
[4] = biological target: 72 kDa type IV collagenase (Homo sapiens, UniProt P08253); test: Dose Response validation of uHTS RPN11 inhibitor hits using a MMP-2 Fluorescence assay.; assay type: functional
[5] = biological target: 26S proteasome non-ATPase regulatory subunit 14 (Homo sapiens, UniProt O00487); test: inhibition of proteasome subunit RPN11 – biochemical, fluorescence polarization, uHTS hits, confirmation (AID 602368); assay type: functional
[6] = Counterscreen for inhibitors of Trypanosoma brucei methionyl tRNA synthetase (MetRS): Luminescence-based cell-based high throughput dose response assay to identify compounds that are cytotoxic to Jurkat human T lymphocyte cells.; assay type: functional
[7] = biological target: T1, Sentrin-specific protease 1 (Homo sapiens, UniProt Q9P0U3); test: SENP1 catalytic domain blockers, concentration series – biochemical, kinetic FRET, dose response (AID 651697); assay type: functional; details: read-out: IC50_Mean
T1 sequence (Q9P0U3 whole entry): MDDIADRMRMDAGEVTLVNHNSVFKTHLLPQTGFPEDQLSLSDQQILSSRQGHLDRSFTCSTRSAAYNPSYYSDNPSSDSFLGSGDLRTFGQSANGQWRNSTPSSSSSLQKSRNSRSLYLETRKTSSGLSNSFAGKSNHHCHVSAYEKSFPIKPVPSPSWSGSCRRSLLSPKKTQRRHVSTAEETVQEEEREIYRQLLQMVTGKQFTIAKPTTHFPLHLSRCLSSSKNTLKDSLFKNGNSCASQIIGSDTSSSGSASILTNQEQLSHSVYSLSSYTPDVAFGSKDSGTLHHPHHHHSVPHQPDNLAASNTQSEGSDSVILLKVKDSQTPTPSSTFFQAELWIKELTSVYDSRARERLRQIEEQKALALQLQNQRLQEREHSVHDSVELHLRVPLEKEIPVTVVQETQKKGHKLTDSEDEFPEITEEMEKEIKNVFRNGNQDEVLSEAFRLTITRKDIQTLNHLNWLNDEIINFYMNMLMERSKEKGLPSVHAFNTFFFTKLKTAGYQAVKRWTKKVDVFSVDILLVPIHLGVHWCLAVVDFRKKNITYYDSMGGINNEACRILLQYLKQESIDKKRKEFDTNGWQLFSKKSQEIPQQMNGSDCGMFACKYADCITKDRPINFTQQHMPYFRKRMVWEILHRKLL

[8] = biological target: T1, Sentrin-specific protease 1; test: Dose response confirmation of small molecule inhibitors of the catalytic domain of the SUMO protease, SENP1 in a FRET assay.; assay type: functional; details: read-out: IC50_Mean
[9] = viability loss in HeLa cells – cytotoxicity control for MgcRacGAP inhibitor project, dose response (AID 624300); assay type: functional
[10] = biological target: T2, Rac GTPase-activating protein 1 (Homo sapiens, UniProt Q9H0H5); test: blockers of MgcRacGAP-driven Rac1 GTP hydrolysis – biochemical, ADP Hunter fluorescence, primary and confirmatory, confirmation (AID 624330); assay type: functional
T2 sequence (Q9H0H5 whole entry): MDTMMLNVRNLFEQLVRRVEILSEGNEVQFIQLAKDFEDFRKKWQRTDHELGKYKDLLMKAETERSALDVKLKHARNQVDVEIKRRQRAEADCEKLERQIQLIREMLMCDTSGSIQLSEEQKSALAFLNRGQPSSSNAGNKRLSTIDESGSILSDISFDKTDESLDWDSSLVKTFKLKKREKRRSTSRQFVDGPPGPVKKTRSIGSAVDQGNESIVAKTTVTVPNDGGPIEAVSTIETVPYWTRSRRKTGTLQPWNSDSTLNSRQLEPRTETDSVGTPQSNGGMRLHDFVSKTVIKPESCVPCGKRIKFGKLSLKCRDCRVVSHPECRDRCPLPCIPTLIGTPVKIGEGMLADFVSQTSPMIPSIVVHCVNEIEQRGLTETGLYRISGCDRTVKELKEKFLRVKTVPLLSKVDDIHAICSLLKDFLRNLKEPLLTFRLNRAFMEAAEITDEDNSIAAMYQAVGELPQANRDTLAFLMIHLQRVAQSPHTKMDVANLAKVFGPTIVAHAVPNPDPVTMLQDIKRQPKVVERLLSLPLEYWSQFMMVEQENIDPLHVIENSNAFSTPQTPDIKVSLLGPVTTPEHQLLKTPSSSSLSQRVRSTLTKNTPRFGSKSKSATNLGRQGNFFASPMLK

[11] = biological target: T3, Heat shock factor protein 1 (Mus musculus, UniProt P38532); test: decrease of HSF1-responsive luciferase luminescence – cell-based, NIH3T3, dose retest, confirmation (AID 2382); assay type: functional;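 also: NIH3T3 fibroblasts with HSF1-driven luciferase reporter stressed by proteasome inhibitor MG132; luminescence from HSF1-driven luciferase expression after 8 hours of MG132 stress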
T3 sequence (P38532 whole entry): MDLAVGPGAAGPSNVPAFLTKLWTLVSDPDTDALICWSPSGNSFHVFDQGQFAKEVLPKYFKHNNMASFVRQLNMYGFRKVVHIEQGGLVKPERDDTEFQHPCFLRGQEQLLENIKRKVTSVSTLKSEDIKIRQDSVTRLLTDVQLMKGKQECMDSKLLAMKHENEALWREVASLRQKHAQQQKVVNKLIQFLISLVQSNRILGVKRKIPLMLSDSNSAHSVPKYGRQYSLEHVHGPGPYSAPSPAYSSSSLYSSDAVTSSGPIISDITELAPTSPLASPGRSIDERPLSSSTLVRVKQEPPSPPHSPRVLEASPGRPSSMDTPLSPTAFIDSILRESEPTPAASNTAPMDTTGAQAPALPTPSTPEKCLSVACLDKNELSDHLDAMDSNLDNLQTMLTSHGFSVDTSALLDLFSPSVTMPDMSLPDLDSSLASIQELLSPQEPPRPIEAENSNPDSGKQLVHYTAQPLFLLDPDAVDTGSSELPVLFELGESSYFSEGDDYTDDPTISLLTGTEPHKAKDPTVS

[12] = biological target: Photoreceptor-specific nuclear receptor (Homo sapiens, UniProt Q9Y5X4); assay type: functional, cell-based;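 also: CHO-S cells with Gal4-NCOR and VP16-NR2E3 two-hybrid luciferase reporter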
[13] = biological target: T4, Corticotropin-releasing factor receptor 2/Corticotropin-releasing factor-binding protein (Homo sapiens, UniProt P24387+Q13324); test: activators of CRF receptor 2 with binding protein – uHTS hits, confirmation (AID 602473); assay type: functional; details: read-out: EC50_Mean
T4 sequence (Q13324 whole entry): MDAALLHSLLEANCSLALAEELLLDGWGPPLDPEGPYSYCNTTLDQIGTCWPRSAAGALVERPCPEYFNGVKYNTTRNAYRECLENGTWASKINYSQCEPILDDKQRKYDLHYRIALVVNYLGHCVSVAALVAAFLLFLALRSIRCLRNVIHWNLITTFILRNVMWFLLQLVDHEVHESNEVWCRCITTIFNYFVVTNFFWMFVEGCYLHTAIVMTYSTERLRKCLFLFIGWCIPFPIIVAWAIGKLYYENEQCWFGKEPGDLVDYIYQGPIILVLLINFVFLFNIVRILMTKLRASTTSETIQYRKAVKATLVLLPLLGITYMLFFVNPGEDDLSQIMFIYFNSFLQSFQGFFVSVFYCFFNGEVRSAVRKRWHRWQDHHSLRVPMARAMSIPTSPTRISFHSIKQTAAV
T4 sequence (P24387 whole entry): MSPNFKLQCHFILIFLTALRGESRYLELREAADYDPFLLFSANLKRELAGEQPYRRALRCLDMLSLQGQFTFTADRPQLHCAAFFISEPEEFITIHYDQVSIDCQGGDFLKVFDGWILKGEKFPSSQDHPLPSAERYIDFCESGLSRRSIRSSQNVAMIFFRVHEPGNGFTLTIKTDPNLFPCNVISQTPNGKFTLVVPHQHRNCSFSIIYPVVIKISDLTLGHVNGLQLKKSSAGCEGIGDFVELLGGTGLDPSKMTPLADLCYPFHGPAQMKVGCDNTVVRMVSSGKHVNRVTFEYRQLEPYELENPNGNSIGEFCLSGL

INS1 = test: INS-1E survival protection against cytokine death – cell-based, luminescence, retest, dose response (AID 449756); assay type: functional; details: Rattus norvegicus;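 also: cell death triggered by IL-1 beta plus TNF-alpha plus IFN-gamma mixture; protective hits raise ATP signal compared with cytokine alone wells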
[14] = biological target: T4, Corticotropin-releasing factor receptor 2/Corticotropin-releasing factor-binding protein; test: Dose Response confirmation of uHTS hits for small molecule antagonists of the CRF-binding protein and CRF-R2 receptor complex.; assay type: functional; details: read-out: IC50_Mean
[15] = blockers of CRF-binding protein–CRF-R2 complex – cell-based, uHTS hits, 384-well, dose response (AID 651639); assay type: functional, Homo sapiens; details: read-out: IC50_Mean
Fatty acid synthase [16] = biological target: T5, Fatty acid synthase (Homo sapiens, UniProt P49327); test: inhibition of human FAS-TE enzyme activity – biochemical, kinetic fluorescence intensity, dose response (AID 624326); assay type: functional;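 also: rate of fluorescence rise from hydrolysis of a fluorogenic O-methyl fluorescein ester substrate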
Fatty acid synthase [17] = biological target: T5, Fatty acid synthase; test: inhibition of human FAS-TE enzyme activity – biochemical, endpoint fluorescence intensity, uHTS hits, dose response (AID 624327); assay type: functional;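 also: fluorescence from hydrolysis of an O-methyl fluorescein acyl ester substrate by the enzyme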

T5 sequence (P49327 whole entry): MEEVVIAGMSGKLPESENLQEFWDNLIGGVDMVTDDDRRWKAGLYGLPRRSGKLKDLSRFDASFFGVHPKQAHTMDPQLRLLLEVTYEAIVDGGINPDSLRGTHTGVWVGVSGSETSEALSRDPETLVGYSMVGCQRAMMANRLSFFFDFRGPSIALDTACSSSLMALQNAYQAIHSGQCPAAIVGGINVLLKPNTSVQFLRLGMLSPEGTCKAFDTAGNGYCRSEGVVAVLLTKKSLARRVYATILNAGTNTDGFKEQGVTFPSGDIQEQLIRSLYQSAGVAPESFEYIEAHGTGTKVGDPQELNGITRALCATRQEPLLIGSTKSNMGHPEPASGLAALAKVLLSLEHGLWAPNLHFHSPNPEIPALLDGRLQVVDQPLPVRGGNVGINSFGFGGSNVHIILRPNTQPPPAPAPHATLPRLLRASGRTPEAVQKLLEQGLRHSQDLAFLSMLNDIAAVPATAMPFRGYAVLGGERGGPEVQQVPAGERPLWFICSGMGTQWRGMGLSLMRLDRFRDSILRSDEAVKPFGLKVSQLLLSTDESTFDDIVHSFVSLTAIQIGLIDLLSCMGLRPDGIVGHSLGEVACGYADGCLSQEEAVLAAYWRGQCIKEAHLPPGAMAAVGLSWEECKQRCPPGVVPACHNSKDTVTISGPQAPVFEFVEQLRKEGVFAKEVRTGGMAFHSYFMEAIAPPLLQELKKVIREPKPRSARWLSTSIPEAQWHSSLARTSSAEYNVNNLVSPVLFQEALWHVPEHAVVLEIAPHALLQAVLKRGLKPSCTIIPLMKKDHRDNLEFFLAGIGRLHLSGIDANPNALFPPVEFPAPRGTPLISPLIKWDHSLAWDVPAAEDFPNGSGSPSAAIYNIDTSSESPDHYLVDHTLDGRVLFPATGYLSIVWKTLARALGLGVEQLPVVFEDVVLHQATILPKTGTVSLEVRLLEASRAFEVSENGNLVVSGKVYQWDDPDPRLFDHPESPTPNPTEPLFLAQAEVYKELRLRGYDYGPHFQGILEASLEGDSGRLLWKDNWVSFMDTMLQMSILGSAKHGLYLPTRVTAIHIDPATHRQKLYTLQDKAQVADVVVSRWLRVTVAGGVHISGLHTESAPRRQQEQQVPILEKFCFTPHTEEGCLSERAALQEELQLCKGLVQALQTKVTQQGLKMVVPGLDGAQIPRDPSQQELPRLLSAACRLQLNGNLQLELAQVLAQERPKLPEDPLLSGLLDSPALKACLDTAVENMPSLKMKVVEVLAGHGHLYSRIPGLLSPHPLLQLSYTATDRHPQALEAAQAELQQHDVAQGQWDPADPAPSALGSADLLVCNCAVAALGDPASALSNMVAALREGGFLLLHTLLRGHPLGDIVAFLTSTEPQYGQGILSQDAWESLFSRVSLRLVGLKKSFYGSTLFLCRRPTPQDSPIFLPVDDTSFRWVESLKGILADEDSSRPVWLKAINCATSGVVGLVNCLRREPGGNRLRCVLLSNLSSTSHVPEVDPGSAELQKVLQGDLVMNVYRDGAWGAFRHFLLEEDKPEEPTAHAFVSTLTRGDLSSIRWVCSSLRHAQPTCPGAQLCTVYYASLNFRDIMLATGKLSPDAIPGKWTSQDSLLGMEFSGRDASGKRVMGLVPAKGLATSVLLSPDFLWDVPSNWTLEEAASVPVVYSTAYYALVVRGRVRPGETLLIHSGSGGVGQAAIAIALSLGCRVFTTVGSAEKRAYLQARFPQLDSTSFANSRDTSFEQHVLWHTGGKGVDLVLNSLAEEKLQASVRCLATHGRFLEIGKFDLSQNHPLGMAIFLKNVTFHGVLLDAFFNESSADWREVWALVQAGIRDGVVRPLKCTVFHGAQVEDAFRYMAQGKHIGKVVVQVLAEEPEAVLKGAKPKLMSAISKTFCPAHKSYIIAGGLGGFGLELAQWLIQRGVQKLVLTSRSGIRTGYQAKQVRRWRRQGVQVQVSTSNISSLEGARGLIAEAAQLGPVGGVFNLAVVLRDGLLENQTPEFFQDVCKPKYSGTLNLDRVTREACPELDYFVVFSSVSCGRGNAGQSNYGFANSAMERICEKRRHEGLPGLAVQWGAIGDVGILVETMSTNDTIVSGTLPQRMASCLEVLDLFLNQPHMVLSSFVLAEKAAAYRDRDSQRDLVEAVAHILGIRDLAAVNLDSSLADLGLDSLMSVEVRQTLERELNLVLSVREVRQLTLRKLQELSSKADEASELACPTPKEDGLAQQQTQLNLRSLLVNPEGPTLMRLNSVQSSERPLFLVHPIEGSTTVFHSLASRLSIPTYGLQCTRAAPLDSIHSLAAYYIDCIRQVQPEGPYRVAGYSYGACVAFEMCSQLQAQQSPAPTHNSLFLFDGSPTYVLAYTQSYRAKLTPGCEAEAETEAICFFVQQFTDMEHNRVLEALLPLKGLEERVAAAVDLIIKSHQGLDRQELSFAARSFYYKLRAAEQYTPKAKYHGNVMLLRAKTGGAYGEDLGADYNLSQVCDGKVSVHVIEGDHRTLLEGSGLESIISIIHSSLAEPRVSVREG
72 kDa type IV collagenase, sequence (P08253 whole entry): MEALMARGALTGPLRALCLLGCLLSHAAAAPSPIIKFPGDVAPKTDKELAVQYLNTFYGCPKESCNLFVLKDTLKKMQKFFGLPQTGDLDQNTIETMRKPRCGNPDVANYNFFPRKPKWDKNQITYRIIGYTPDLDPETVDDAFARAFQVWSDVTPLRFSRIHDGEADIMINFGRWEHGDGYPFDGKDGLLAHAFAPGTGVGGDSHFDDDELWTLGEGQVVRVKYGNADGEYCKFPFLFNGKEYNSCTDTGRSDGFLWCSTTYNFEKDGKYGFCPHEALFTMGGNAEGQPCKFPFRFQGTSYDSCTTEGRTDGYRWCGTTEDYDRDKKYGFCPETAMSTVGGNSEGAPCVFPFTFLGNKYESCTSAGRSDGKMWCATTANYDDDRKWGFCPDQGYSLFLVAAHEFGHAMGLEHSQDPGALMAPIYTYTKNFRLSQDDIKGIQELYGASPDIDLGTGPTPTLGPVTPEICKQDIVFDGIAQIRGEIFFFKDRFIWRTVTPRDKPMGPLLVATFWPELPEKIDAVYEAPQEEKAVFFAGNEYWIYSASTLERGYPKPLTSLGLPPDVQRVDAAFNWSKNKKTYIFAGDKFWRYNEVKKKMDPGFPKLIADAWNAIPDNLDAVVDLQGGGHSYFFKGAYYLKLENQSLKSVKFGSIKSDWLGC
Beta Lactamase, sequence (Q932Y6 whole entry): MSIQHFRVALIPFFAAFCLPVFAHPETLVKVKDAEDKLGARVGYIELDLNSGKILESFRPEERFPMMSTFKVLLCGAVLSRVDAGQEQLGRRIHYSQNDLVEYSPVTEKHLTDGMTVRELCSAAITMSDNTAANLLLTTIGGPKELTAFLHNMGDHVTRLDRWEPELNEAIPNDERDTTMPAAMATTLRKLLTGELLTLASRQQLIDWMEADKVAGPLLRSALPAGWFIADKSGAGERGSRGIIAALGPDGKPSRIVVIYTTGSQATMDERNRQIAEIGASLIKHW
26S proteasome non-ATPase regulatory subunit 14, sequence (O00487 whole entry): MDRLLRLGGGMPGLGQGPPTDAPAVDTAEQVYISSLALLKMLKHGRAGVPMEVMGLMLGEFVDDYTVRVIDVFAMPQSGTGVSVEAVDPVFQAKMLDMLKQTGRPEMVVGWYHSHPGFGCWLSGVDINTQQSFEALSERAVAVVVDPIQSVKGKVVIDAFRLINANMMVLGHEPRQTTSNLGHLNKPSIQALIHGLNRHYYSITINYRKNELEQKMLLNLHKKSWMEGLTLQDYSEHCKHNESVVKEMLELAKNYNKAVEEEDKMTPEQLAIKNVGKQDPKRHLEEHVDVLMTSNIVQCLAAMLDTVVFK
Paired box protein Pax-8, sequence (Q06710 whole entry): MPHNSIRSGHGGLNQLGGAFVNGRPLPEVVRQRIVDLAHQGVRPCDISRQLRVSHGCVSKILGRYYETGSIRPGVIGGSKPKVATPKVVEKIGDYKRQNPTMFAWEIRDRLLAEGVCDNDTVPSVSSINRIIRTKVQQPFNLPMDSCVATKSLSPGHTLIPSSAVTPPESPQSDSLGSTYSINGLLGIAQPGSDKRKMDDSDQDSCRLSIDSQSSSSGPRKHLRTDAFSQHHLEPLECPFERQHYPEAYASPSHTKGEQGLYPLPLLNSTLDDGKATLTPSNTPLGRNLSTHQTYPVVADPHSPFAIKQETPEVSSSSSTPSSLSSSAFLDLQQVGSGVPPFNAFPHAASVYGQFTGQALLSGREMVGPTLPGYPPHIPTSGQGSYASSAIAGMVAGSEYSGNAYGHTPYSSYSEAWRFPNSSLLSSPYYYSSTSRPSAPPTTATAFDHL
Photoreceptor-specific nuclear receptor, sequence (Q9Y5X4 whole entry, the tested form may be a part): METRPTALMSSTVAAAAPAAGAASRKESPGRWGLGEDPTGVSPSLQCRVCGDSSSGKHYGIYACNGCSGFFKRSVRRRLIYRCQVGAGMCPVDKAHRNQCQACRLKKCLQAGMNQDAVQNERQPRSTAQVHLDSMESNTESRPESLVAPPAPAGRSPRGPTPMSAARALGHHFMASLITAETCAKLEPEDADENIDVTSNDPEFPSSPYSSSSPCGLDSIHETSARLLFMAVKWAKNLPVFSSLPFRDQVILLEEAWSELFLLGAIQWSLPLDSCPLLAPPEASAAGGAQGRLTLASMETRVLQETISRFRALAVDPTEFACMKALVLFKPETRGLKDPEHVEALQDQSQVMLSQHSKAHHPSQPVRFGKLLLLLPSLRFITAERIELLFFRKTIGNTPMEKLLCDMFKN

SMILES: COc1ccc(OC)c2sc(N(CCCN(C)C)C(=O)CCS(=O)(=O)c3ccccc3)nc12
IC50 (Beta Lactamase): 32.1 µM (inactive)
EC50 [1]: 4.32 µM (active)
IC50 [2]: 2.06 µM (active)
AC50 (Paired box protein Pax-8): 4.77 µM (active)
EC50 [3]: 6.44 µM (active)

SMILES: COc1ccc(NC(=O)COC(=O)CCCOc2ccc(Cl)cc2Cl)cc1
IC50 [6]: 83.3 µM (inactive)

SMILES: Nc1nc(N)nc(-c2cc(O)ccc2O)n1
IC50 [12]: 5.7 µM (active)

SMILES: CC(C)Cn1c(SCC(=O)N2CCc3ccccc3C2)nc2cc(Cl)ccc2c1=O
EC50 [13]: > 53 µM (inactive)
AC50 (INS1): 7.24 µM (active)
IC50 [14]: 6.92 µM (active)
IC50 [15]: 6.45 µM (active)

SMILES: CCOC(=O)[C@]12Cc3cc(Cl)ccc3[C@H]1N(C1CCCCC1)C(=O)c1cc(OC)ccc12
IC50 (Fatty acid synthase [16]): 3.04 µM (active)
IC50 (Fatty acid synthase [17]): 2.71 µM (active)
IC50 (Beta Lactamase): 16.8 µM (inactive)
IC50 [2]: 11.7 µM (inactive)

Now from value to compound, other results behind:

IC50 (Prothrombin): 85.3 µM (active)
IC50 [4]: > 100 µM (inactive)
IC50 [5]: 98.6 µM (active)
SMILES: Cc1nnc(SCc2nc3scc(-c4ccccc4)c3c(=O)[nH]2)s1

IC50 [7]: 31 µM (inactive)
IC50 [8]: 11 µM (active)
SMILES: COc1ccc(N2C(=O)C3C(C2=O)C(C(=O)c2ccccc2)N2CCCC32)cc1 (centres undefined)

IC50 (Prothrombin): 43.2 µM (active)
IC50 [4]: > 100 µM (inactive)
IC50 [5]: 30.2 µM (active)
SMILES: CC(=O)N1CCc2cc(NN=C3C(=O)CCCC3=O)ccc21

IC50 [10]: 156 µM (active)
SMILES: c1ccc(CCNCCCOc2cccc3ccccc23)cc1
CC50 [9]: 75.9 µM (active)

IC50 [7]: 23.9 µM (inactive)
IC50 [8]: 16.9 µM (active)
EC50 [11]: > 195 µM (not active)
SMILES: NC(=O)CCC(C(=O)O)N1C(=O)c2ccc(O)cc2C1=O (centres undefined)

IC50 [15]: 14.8 µM (active)
SMILES: Fc1ccccc1CN=C(S)Nc1ccc(Cl)cc1
